According to PubChem BioAssay AID192 (DTP/NCI, 2004):
Values joined by “and” are separate entries in the source; they are usually repeats but may differ in a detail not shown here. Equal entries are not always repeated. Toxic doses and inconclusive results are not listed.

Test system: BDF1 mice, B16 melanoma ip, median survival T/C
Assay: NCI In Vivo Anticancer Drug Screen. Data for tumor model B16 Melanoma (intraperitoneal) in B6D2F1 (BDF1) mice
Conditions: endpoint: median survival time, higher = longer survival
Procedure, shortened: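 Transplantable tumor model; survival or tumor size measured; reported as T/C, treated over vehicle control.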

[1] = dose: 6.25 mg/kg/injection, schedule: Q01DX009 (ip), vehicle: Klucel (hydroxypropylcellulose) (HPC)
[2] = dose: 12.5 mg/kg/injection, schedule: Q01DX009 (ip), vehicle: Klucel (hydroxypropylcellulose) (HPC)

For `O=C(O)c1c2c(nc3ccccc13)Cc1ccccc1-2`, the T/C (dose: 3.12 mg/kg/injection, schedule: Q01DX009 (ip), vehicle: Klucel (hydroxypropylcellulose) (HPC)) was 100 % of control, the T/C [1] was 96 % of control and 103 % of control and the T/C (dose: 6.25 mg/kg/injection, schedule: Q01DX009 (ip), vehicle: water) was 89 % of control. The T/C [2] was 98 % of control and 103 % of control and 119 % of control, the T/C (dose: 12.5 mg/kg/injection, schedule: Q01DX009 (ip), vehicle: water) was 96 % of control and 108 % of control and the T/C (dose: 25.0 mg/kg/injection, schedule: Q01DX009 (ip), vehicle: water) was 112 % of control and 114 % of control. For the same compound, the T/C (dose: 30.0 mg/kg/injection, schedule: Q03HX008 (ip), vehicle: water) was 96 % of control, the T/C (dose: 30.0 mg/kg/injection, schedule: Q03HX016 (ip), vehicle: water) was 107 % of control and the T/C (dose: 30.0 mg/kg/injection, schedule: Q03HX024 (ip), vehicle: water) was 101 % of control. The T/C (dose: 44.0 mg/kg/injection, schedule: Q01DX005 (iv), vehicle: water) was 102 % of control, the T/C (dose: 44.0 mg/kg/injection, schedule: Q01DX009 (ip), vehicle: water) was 120 % of control and the T/C (dose: 44.0 mg/kg/injection, schedule: Q01DX009 (sc), vehicle: water) was 102 % of control. For the same compound, the T/C (dose: 44.0 mg/kg/injection, schedule: Q03HX008 (ip), vehicle: water) was 118 % of control, the T/C (dose: 44.0 mg/kg/injection, schedule: Q03HX016 (ip), vehicle: water) was 102 % of control and the T/C (dose: 44.0 mg/kg/injection, schedule: Q03HX024 (ip), vehicle: water) was 118 % of control. The T/C (dose: 67.0 mg/kg/injection, schedule: Q01DX001 (ip), vehicle: water) was 107 % of control, the T/C (dose: 67.0 mg/kg/injection, schedule: Q01DX005 (iv), vehicle: water) was 92 % of control and the T/C (dose: 67.0 mg/kg/injection, schedule: Q01DX009 (ip), vehicle: water) was 169 % of control. The T/C (dose: 67.0 mg/kg/injection, schedule: Q01DX009 (oral), vehicle: water) was 99 % of control, the T/C (dose: 67.0 mg/kg/injection, schedule: Q01DX009 (sc), vehicle: water) was 108 % of control and the T/C (dose: 67.0 mg/kg/injection, schedule: Q03HX008 (ip), vehicle: water) was 106 % of control. The T/C (dose: 67.0 mg/kg/injection, schedule: Q03HX016 (ip), vehicle: water) was 104 % of control, the T/C (dose: 67.0 mg/kg/injection, schedule: Q03HX024 (ip), vehicle: water) was 112 % of control and the T/C (dose: 67.0 mg/kg/injection, schedule: Q04DX003 (ip), vehicle: water) was 116 % of control. The T/C (dose: 67.0 mg/kg/injection, schedule: Q08DX002 (ip), vehicle: water) was 106 % of control, the T/C (dose: 89.0 mg/kg/injection, schedule: Q01DX001 (ip), vehicle: Klucel (hydroxypropylcellulose) (HPC)) was 106 % of control and the T/C (dose: 100.0 mg/kg/injection, schedule: Q01DX001 (ip), vehicle: water) was 102 % of control. The T/C (dose: 100.0 mg/kg/injection, schedule: Q01DX001 (oral), vehicle: water) was 101 % of control, the T/C (dose: 100.0 mg/kg/injection, schedule: Q01DX005 (iv), vehicle: water) was 100 % of control and the T/C (dose: 100.0 mg/kg/injection, schedule: Q01DX009 (oral), vehicle: water) was 94 % of control. For the same compound, the T/C (dose: 100.0 mg/kg/injection, schedule: Q01DX009 (sc), vehicle: water) was 108 % of control, the T/C (dose: 100.0 mg/kg/injection, schedule: Q03HX008 (ip), vehicle: water) was 120 % of control and the T/C (dose: 100.0 mg/kg/injection, schedule: Q03HX016 (ip), vehicle: water) was 118 % of control. The T/C (dose: 100.0 mg/kg/injection, schedule: Q03HX024 (ip), vehicle: water) was 112 % of control, the T/C (dose: 100.0 mg/kg/injection, schedule: Q04DX003 (ip), vehicle: water) was 110 % of control and the T/C (dose: 100.0 mg/kg/injection, schedule: Q08DX002 (ip), vehicle: water) was 113 % of control. The T/C (dose: 133.0 mg/kg/injection, schedule: Q01DX009 (ip), vehicle: Klucel (hydroxypropylcellulose) (HPC)) was 156 % of control, the T/C (dose: 133.0 mg/kg/injection, schedule: Q04DX003 (ip), vehicle: Klucel (hydroxypropylcellulose) (HPC)) was 124 % of control and the T/C (dose: 150.0 mg/kg/injection, schedule: Q01DX001 (ip), vehicle: water) was 98 % of control and 104 % of control. For the same compound, the T/C (dose: 150.0 mg/kg/injection, schedule: Q01DX001 (oral), vehicle: water) was 98 % of control, the T/C (dose: 150.0 mg/kg/injection, schedule: Q01DX005 (iv), vehicle: water) was 102 % of control and the T/C (dose: 150.0 mg/kg/injection, schedule: Q01DX009 (oral), vehicle: water) was 90 % of control. For the same compound, the T/C (dose: 150.0 mg/kg/injection, schedule: Q01DX009 (sc), vehicle: water) was 115 % of control, the T/C (dose: 150.0 mg/kg/injection, schedule: Q03HX008 (ip), vehicle: water) was 121 % of control and the T/C (dose: 150.0 mg/kg/injection, schedule: Q04DX003 (ip), vehicle: water) was 108 % of control and 122 % of control. For the same compound, the T/C (dose: 150.0 mg/kg/injection, schedule: Q08DX002 (ip), vehicle: water) was 121 % of control, the T/C (dose: 200.0 mg/kg/injection, schedule: Q01DX001 (ip), vehicle: Klucel (hydroxypropylcellulose) (HPC)) was 124 % of control and the T/C (dose: 200.0 mg/kg/injection, schedule: Q01DX009 (ip), vehicle: water) was 152 % of control. The T/C (dose: 225.0 mg/kg/injection, schedule: Q01DX001 (ip), vehicle: water) was 93 % of control and 110 % of control, the T/C (dose: 225.0 mg/kg/injection, schedule: Q01DX001 (oral), vehicle: water) was 94 % of control and the T/C (dose: 225.0 mg/kg/injection, schedule: Q01DX005 (iv), vehicle: water) was 104 % of control. The T/C (dose: 225.0 mg/kg/injection, schedule: Q01DX009 (oral), vehicle: water) was 92 % of control, the T/C (dose: 225.0 mg/kg/injection, schedule: Q01DX009 (sc), vehicle: water) was 104 % of control and the T/C (dose: 225.0 mg/kg/injection, schedule: Q04DX003 (ip), vehicle: water) was 107 % of control and 111 % of control. The T/C (dose: 225.0 mg/kg/injection, schedule: Q08DX002 (ip), vehicle: water) was 111 % of control, the T/C (dose: 337.0 mg/kg/injection, schedule: Q01DX001 (ip), vehicle: water) was 98 % of control and the T/C (dose: 337.0 mg/kg/injection, schedule: Q01DX001 (oral), vehicle: water) was 99 % of control. For the same compound, the T/C (dose: 337.0 mg/kg/injection, schedule: Q01DX009 (oral), vehicle: water) was 97 % of control, the T/C (dose: 337.0 mg/kg/injection, schedule: Q04DX003 (ip), vehicle: water) was 105 % of control and 112 % of control and the T/C (dose: 450.0 mg/kg/injection, schedule: Q01DX001 (ip), vehicle: Klucel (hydroxypropylcellulose) (HPC)) was 111 % of control. The T/C (dose: 506.0 mg/kg/injection, schedule: Q01DX001 (oral), vehicle: water) was 93 % of control.
For `C#CCOCC1CN(C)C(=O)O1` (stereo unspecified), the T/C (dose: 25.0 mg/kg/injection, schedule: Q01DX009 (ip), vehicle: saline) was 109 % of control, the T/C (dose: 100.0 mg/kg/injection, schedule: Q01DX009 (ip), vehicle: saline) was 102 % of control and the T/C (dose: 200.0 mg/kg/injection, schedule: Q01DX009 (ip), vehicle: saline) was 109 % of control. The T/C (dose: 400.0 mg/kg/injection, schedule: Q01DX009 (ip), vehicle: saline) was 107 % of control.
In the case of `N#Cc1ccc(C(=O)C=C(C(F)(F)F)C(F)(F)F)cc1`, the T/C (dose: 1.56 mg/kg/injection, schedule: Q01DX009 (ip), vehicle: saline with Tween-80) is reported as 99 % of control, the T/C (dose: 3.12 mg/kg/injection, schedule: Q01DX009 (ip), vehicle: saline with Tween-80) is reported as 100 % of control and the T/C (dose: 6.25 mg/kg/injection, schedule: Q01DX009 (ip), vehicle: saline with Tween-80) is reported as 99 % of control. For the same compound, the T/C (dose: 12.5 mg/kg/injection, schedule: Q01DX009 (ip), vehicle: saline with Tween-80) was 93 % of control.
In the case of `CC12CCC(C1)C(C)(C)C2NCCCN1C(=O)c2ccc3c4c(ccc(c24)C1=O)C(=O)N(CCCNC1C2(C)CCC(C2)C1(C)C)C3=O` (stereo unspecified), the T/C [1] is reported as 100 % of control, the T/C [2] is reported as 96 % of control and the T/C (dose: 25.0 mg/kg/injection, schedule: Q01DX009 (ip), vehicle: Klucel (hydroxypropylcellulose) (HPC)) is reported as 106 % of control and 109 % of control.
With `CCC/C(C)=N/Nc1ccccn1` the T/C (dose: 12.5 mg/kg/injection, schedule: Q01DX009 (ip), vehicle: saline sonified) was 97 % of control, the T/C (dose: 25.0 mg/kg/injection, schedule: Q01DX009 (ip), vehicle: saline sonified) was 95 % of control and the T/C (dose: 50.0 mg/kg/injection, schedule: Q01DX009 (ip), vehicle: saline sonified) was 97 % of control. The T/C (dose: 100.0 mg/kg/injection, schedule: Q01DX009 (ip), vehicle: saline sonified) was 100 % of control.
In the case of `NC(N)=Nc1ccc(C(=O)Oc2ccc([N+](=O)[O-])cc2CN2CCCCC2)cc1`, the T/C (dose: 3.13 mg/kg/injection, schedule: Q01DX009 (ip), vehicle: saline) is reported as 100 % of control and the T/C (dose: 6.25 mg/kg/injection, schedule: Q01DX009 (ip), vehicle: saline) is reported as 100 % of control.
For `CCOC(=O)C(=O)c1c(C)[nH]c2ccccc12`, the T/C (dose: 100.0 mg/kg/injection, schedule: Q01DX009 (ip), vehicle: Klucel (hydroxypropylcellulose) (HPC)) was 113 % of control, the T/C (dose: 200.0 mg/kg/injection, schedule: Q01DX009 (ip), vehicle: Klucel (hydroxypropylcellulose) (HPC)) was 106 % of control and the T/C (dose: 400.0 mg/kg/injection, schedule: Q01DX009 (ip), vehicle: Klucel (hydroxypropylcellulose) (HPC)) was 106 % of control.
